Structures can show the parent of a compound that is named as a salt.
Experiments:
[1] = system: Hennes 20 cells; experiment: Cell growth recovery assay; assay type: cell-based, Chinese hamster; details: PAV-617 0.3 µM 24 h, PAV-951 0.4 µM 6 h, followed to day 14
Method: To confirm that the inhibition observed in low-density Hennes 20 cells resulted from temporary arrest of proliferation and not cell death, compound was removed after a period of treatment and cell growth was measured over the subsequent two weeks for recovery potential. Once compound was removed, following a period of recovery, cell proliferation was restored over time for both chemotypes (see figure 1f,g). By day 11, cell density in compound-treated cells had caught up to that in the DMSO-treated cells (see figure 1f,g).
A 96-well plate was seeded with either Hennes 20 or LNCaP C-33 cells at 500 cells per well in 90 µl of minimum essential media and incubated at 37°C for 24 h. 0.5% DMSO was diluted in media and added to six control wells for each plate. PAV-617 was diluted in media and added to three wells at a concentration of 0.3 µM. PAV-951 was diluted in media and added to concentration of 0.4 µM. After 24 h of PAV-617 treatment or 6 h of PAV-951 treatment, the medium containing compound was removed and replaced with fresh media. After 72 h (day 5), plates were assayed with AlamarBlue and fluorescence was read at 530/590. The medium containing AlamarBlue was removed and replaced with fresh media. After another 72 h (day 8) plates were assayed with AlamarBlue and fluorescence again, then medium containing AlamarBlue was removed and replaced with fresh media. […]

[2] = system: NCI-60 cancer cell lines; details: for anti-cancer activity in NCI-60 single-dose testing: single dose 2.5 µM
[3] = system: Hennes 20 cells; experiment: High density/low density 'arrest of proliferation' assay; assay type: cell-based, Chinese hamster; details: Hennes 20, 72 h, AlamarBlue
[4] = system: A549 human lung cancer xenograft; experiment: A549 xenograft studies; details: for tumour growth inhibition (TGI): A549 xenograft, Gemcitabine 100 mg kg^−1 twice weekly
[5] = system: BB1 patient biopsy derived cell line (benign adenoma); experiment: BB1 and BB5 adenoma versus carcinoma screen (confocal imaging); assay type: cell-based, human; details: 60 h, percent ChromaLive negative
[6] = system: Mpox Zaire 79; assay type: cell-based, Mpox virus; details: read-out: EC50 against Mpox
[7] = system: LNCaP C-33 cells; experiment: Cell growth recovery assay; assay type: cell-based, human; details: PAV-617 0.3 µM 24 h, PAV-951 0.4 µM 6 h, followed
[8] = system: A549; experiment: In-house cancer cell viability screen (AlamarBlue); assay type: cell-based, human; details: for change of potency when compound is added at the time of plating rather than 24 h later: A549; for IC50: Homo sapiens, AlamarBlue
[9] = system: HT-29 colorectal cancer xenograft; experiment: HT-29 xenograft study; assay type: in vivo, mouse; details: 17 days, PAV-951 3 mg kg^−1 IV, Irinotecan 60 mg kg^−1 IP
Method: In the second animal efficacy study, human HT-29 colorectal adenocarcinoma cells were grafted subcutaneously onto mice. After tumour establishment, the animals received treatment with vehicle, 3 mg kg^−1 PAV-951 or 60 mg kg^−1 of a positive control drug Irinotecan. […]. Survival was not assessed as part of the study.
HT-29 cells growing in HBSS medium were suspended in Matrigel. 0.1 ml of the cell suspension containing 5 × 10^6 cells were injected subcutaneously into the left flank region of male, 6–8 week old SCID mice. After tumour establishment, animals were divided randomly into groups of six and treated daily by IV with vehicle daily for 17 days, 3 mg kg^−1 PAV-951 three times per week for 17 days, or treated by IP with 60 mg kg^−1 Irinotecan every 4 days for 14 days. Tumour volume was calculated using the formula: (L × W2)/2 where L is the largest diameter and W is the smallest diameter of the tumour. Statistical analysis was performed using GraphPad Prism (Ver. 5.03). Statistical analysis of tumour growth inhibition between the Control and Treated groups was performed by using ne-way ANOVA followed by Dunnett’s test.

[10] = system: A549 and MRC-5 cells; experiment: Toxicity to A549 cancer line versus non-cancer MRC-5 cells; assay type: cell-based
[11] = in vivo; details: female, Balb/c, mouse, ip
[12] = Mouse pharmacokinetics (plasma and lung); assay type: in vivo; details: PAV-621 5 mg kg^−1 IP versus PAV-951 2.5 mg kg^−1 IV
Method: Pharmacokinetic (PK) studies were conducted in male Sprague Dawley Rats aged 8–10 weeks or male CD1 mice aged 5–6 weeks or Balb/c nude mice. Treatment groups were made up of four animals each and dosing regimens for disclosed data is provided. Animals were sacrificed at the end of the study period using an overdose of CO2. PK studies were conducted at Vipragen Biosciences Private Limited or Pharmaron in accordance with the CPCSEA guidelines and ARRIVE guidelines.
CD1 or Balb/c nude mice aged 6–8 weeks were randomly divided into treatment groups with three animals per group. Animals in each treatment group were weighed and received either one […] intravenous dose of either vehicle (10% DMSO, 45% propylene glycol, 45% sterile water) or 2.5 mg kg^−1 PAV-951, or one intraperitoneal dose of either vehicle ([…] 10% DMSO, 45% propylene glycol, 45% sterile water) or 5 mg kg^−1 PAV-621. Animals were sacrificed after 1 h, 4 h, 8 h, 24 h post-dosing. Concentration of drug in the plasma and lung over time was measured using a Waters Acquity TQD LCMS/MS. Maximum concentration (Cmax) was determined to be the maximum concentration detected in a dataset. Half life, area under the curve and mean residence time were calculated with Phoenix WinNolin software.

[13] = mouse MTD; cited from earlier work
[14] = PAV-617 study, 28 days, IP, PAV-617 10 mg kg^−1 once daily

For “3,7-Di(pyrrolidin-1-yl) phenothiazinium iodide [PAV-617]”, the “recovery of cell growth after removal of compound” value [1] was “recovered over time”, the “dose inhibiting growth relative to vehicle-treated cells (GI50)” value ([2]; for more than 40 cell lines) was 2–3 digit nanomolar range and the CC50 ([2]; read-out: dose required to decrease cell viability below that at the time compound was added (LC50), for at least 40 cell lines) was over 100 µM. The “inhibitory effect at low (500 cells per well) versus high (15 000 cells per well) density” value [3] was “difference between their inhibitory effects on low and high density-plated Hennes 20 cells”, the “tumour growth inhibition (TGI)” value [4, 14] was 63% and the “adverse effects at the doses of the xenograft studies” value ([4]; clinical signs, weight loss, histopathological changes, blood cell count) was “without any serious adverse effects”. For the same compound, the IC50 [5] was 0.81 µM, the EC50 [6] was 0.201 µM and the “recovery of cell growth after removal of compound” value [7] was “did not recover”.
For `Nc1ccn([C@@H]2O[C@H](CO)[C@@H](O)C2(F)F)c(=O)n1` [Gemcitabine, Gemcitabine hydrochloride, reference compound], the “change of potency when compound is added at the time of plating rather than 24 h later” value [8] was “did not significantly affect”, the IC50 ([8]; A549 (treatment 0 h after plating)) was 3.01 µM and the IC50 ([8]; A549 (treatment 24 h after plating), 72 h) was 3.92 µM. For the same compound, the “tumour growth inhibition (TGI)” value [4, 14] was 64% and the “tumour growth inhibition (TGI)” value ([4]; PAV-951 study, 14 days, IV, PAV-951 1.5 mg kg^−1 once daily) was 84%.
With `CCc1c2c(nc3ccc(OC(=O)N4CCC(N5CCCCC5)CC4)cc13)-c1cc3c(c(=O)n1C2)COC(=O)[C@]3(O)CC` [Irinotecan, reference compound] the “tumour growth inhibition (TGI)” value [9] was 108%.
With `c1ccc(CCNc2ncnc3cc(N4CCN(c5ccc6c(NCCc7ccccc7)ncnc6c5)CC4)ccc23)cc1` [PAV-436] the “anti-cancer activity in NCI-60 single-dose testing” value [2] was “lost all anti-cancer activity on all cell lines examined”.
In the case of `CCCCNc1ncnc2cc(N3CCN(c4ccc5c(NCCCC)ncnc5c4)CC3)ccc12` [PAV-621], the “toxicity to A549 cancer line compared with non-cancer MRC-5 cells” value [10] is reported as “selectively toxic to the A549 cancer line”, the “anti-cancer activity in NCI-60 single-dose testing” value [2] is reported as “improvements relative to PAV-951” and the MTD at 72 h [11] is reported as 7.5 mg/kg. For the same compound, the “change of potency when compound is added at the time of plating rather than 24 h later” value [8] was “increased potency” and the “exposure in the lung” value [12] was “comparable exposure with PAV-951”.
In the case of `CCC1=C[C@@H]2CN(C1)Cc1c([nH]c3ccccc13)[C@@](C(=O)OC)(c1cc3c(cc1OC)N(C)[C@H]1[C@@](O)(C(=O)OC)[C@H](OC(C)=O)[C@]4(CC)C=CCN5CC[C@]31[C@@H]54)C2` [Vinorelbine], the MTD [13] is given as 10 mg/kg.
For cisplatin, the MTD [13] is listed as 6 mg/kg.

Source: PMC11651915, “Small molecule protein assembly modulators with pan-cancer therapeutic efficacy” (Open Biology, 2024)
